Publication PMC4192545, “Suramin Inhibits Hsp104 ATPase and Disaggregase Activity” (PLoS ONE, 2014)
Structures can show the parent of a compound that is named as a salt. Where two headings read alike, the source gives them in different places.

What was measured:
[1] = molecular target: T1, Hsp104 (Saccharomyces cerevisiae, UniProt P31539); assay: High-throughput Hsp104 ATPase plate assay (malachite green, 384-well); assay type: biochemical, yeast; conditions: for inhibition at 10 µM: read-out: % Inhibition of Hsp104 ATP hydrolysis
T1 construct: made in house; host or cells: E. coli BL21-DE3 RIL
T1 sequence (P31539 whole entry): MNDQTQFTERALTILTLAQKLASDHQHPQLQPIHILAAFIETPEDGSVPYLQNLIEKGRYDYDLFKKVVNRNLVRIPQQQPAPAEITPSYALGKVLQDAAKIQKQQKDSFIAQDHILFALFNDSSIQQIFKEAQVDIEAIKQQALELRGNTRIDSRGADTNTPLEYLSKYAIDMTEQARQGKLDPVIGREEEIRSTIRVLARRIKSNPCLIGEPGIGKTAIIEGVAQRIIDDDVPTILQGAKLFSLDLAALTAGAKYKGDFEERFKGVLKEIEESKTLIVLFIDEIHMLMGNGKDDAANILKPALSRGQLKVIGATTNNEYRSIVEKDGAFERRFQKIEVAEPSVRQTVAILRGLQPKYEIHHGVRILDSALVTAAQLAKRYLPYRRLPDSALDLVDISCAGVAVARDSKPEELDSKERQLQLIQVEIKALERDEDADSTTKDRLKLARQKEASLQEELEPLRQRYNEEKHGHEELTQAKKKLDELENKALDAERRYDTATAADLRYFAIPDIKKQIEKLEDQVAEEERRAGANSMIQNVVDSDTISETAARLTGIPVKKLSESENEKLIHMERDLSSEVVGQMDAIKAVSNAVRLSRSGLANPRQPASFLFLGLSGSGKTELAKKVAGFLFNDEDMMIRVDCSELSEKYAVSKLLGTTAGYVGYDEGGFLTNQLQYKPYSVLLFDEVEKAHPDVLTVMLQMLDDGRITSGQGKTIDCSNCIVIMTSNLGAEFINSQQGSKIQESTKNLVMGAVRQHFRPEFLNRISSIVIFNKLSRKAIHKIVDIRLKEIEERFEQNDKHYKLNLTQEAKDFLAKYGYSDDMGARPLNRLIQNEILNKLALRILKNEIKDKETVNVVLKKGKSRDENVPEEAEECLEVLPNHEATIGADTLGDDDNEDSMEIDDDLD
Procedure: ATPase activity was assessed by the release of inorganic phosphate determined using a malachite green phosphate detection kit (Innova Biosciences, Cambridge, United Kingdom). Microtiter plates (384-well) were purchased from PerkinElmer (Waltham, MA). Three libraries were screened: The NIH Clinical Collection (450 small molecules), the Spectrum Collection (2,000 compounds, MicroSource, Gaylordsville, CT) and the HitFinder Collection (14,400 compounds, Maybridge).
We adapted the inorganic phosphate colorimetric assay to fit a 384-well plate format. A Ź-factor between 0.8 and 1 was calculated for the assay. A 2X Hsp104 stock solution was dispensed into each well using a Biotek microflo (Biotek Instruments, Winooski, VT). Compounds were then transferred using a Janus 96/384 Modular Dispensing Tool (PerkinElmer). Finally, a 2X ATP solution was dispensed using the Biotek microflo. Final concentrations of Hsp104 (monomer) and ATP were 0.25 µM and 1 mM respectively. Seeking to avoid the discovery of competitive inhibitors, we designed our high-throughput screen to use a 100-fold excess of ATP with respect to the test compounds (10 µM each). Final buffer conditions were 20 mM HEPES-KOH pH 7.4, 20 mM NaCl and 10 mM MgCl2. The ATPase reaction was allowed to continue for 60 min, at which time the reaction was terminated by addition of the colorimetric reagent. Absorbance was measured at 635 nm on an EnVision Xcite Multilabel plate reader (PerkinElmer). Hits were tested in duplicate. […] Ten of these were subjected to a 6-point titration (40, 13.3, 4.44, 1.45, 0.49 and 0 µM) in the absence or presence of Triton X-100, BSA, or both Triton X-100 and BSA at the specified concentrations. Heat maps were created in Excel for Mac 2011 (Microsoft Corporation) using the Conditional Formatting feature (Color Scales).
We aimed to identify small molecules capable of inhibiting Hsp104. To do so, we employed high-throughput screening using Hsp104 ATPase activity as a proxy for function. To detect changes in Hsp104 ATPase activity, we used a colorimetric assay detecting free inorganic phosphate (Pi) based on the formation of a colored complex between Pi and a dye molecule under acidic conditions, [44]. Pi is produced from the Hsp104-driven hydrolysis of ATP. The colored complex concentration, a surrogate for Pi concentration and ATPase rate, is determined by measuring the absorbance of a sample at 635 nm. We used recombinant Hsp104 purified from E. coli. An Hsp104 mutant with mutations in both NBD1 and NBD2 Walker B sequence motifs (Hsp104^DWB, carrying ATPase ablating mutations E285Q: E687Q) was used as a negative control for ATPase activity. Hsp104^WT activity results in a high A635 (high ATPase), while Hsp104^DWB activity results in a low A635 (low ATPase). We optimized the Pi colorimetric assay to fit a 384-well plate format. We selected the Hsp104 concentration (0.25 µM) on the basis of previous experience in our laboratory. The ATP concentration was selected to be in a 100-fold excess of ATP with respect to the test compounds. […] We screened 16,850 compounds from the NIH Clinical Collection as well as the Spectrum and Maybridge compound libraries. […] For instance, hexachlorophene and tannic acid inhibit Hsp104 ATPase activity by ∼80%, while Merbromin and Sennoside a inhibit by ∼20% ( Table 1 ).

[2] = molecular target: T2, Hsp104^WT (Saccharomyces cerevisiae, UniProt P31539); assay: Manual ATPase assay, Hsp104^WT; assay type: biochemical, yeast; conditions: 60 min, ATP 1 mM
T2 construct: made in house; host or cells: E. coli BL21-DE3 RIL
T2 sequence (P31539 whole entry): as above
Procedure: Wild-type or mutant Hsp104 (0.25 µM monomer) in ATPase buffer (20 mM HEPES-KOH pH 7.4, 20 mM NaCl and 10 mM MgCl2) was incubated for 60 or 10 min at 25°C in the presence of ATP (1 mM) as noted. ATPase activity was assessed by the release of inorganic phosphate determined by using a malachite green phosphate detection kit (Innova).

[3] = molecular target: T1, Hsp104; assay: Luciferase disaggregation/reactivation assay, Hsp104 with ATP:ATPγS; assay type: biochemical, yeast; conditions: for Normalized Luciferase Refolding Activity: 90 min 25°C, ATP:ATPγS 1:1, Figure 3A
Procedure: Luciferase reactivation was performed as described, [37]. To assemble aggregates, firefly luciferase (50 µM) in luciferase refolding buffer (LRB, 25 mM HEPES-KOH, 7.4, 150 mM KAOc, 10 mM MgAOc, 10 mM DTT) with 6 M urea was incubated at 30°C for 20 min. Luciferase was then rapidly diluted 100-fold into LRB, divided into 100 µL aliquots, snap frozen in liquid N2, and stored at −80°C. For reactivation assays, aggregated luciferase (50 nM) was incubated with Hsp104 (1 µM hexamer), plus 2.6 mM ATPγS, 2.6 mM ATP and an ATP regeneration system (1 mM creatine phosphate, 0.25 µM creatine kinase (Roche Applied Science)) for 90 minutes at 25°C. Luciferase assay system was purchased from Promega. Luciferase activity was assessed by luminescence measured on a Safire^2 microplate reader (Tecan, Männedorf, Switzerland). The half maximal inhibitory concentration (IC50) was calculating by fitting luciferase-refolding data at different Suramin concentrations with Prism (GraphPad Software, Inc., La Jolla, CA).

[4] = system: Hsp104; conditions: cited from earlier work
[5] = 10 µM compound, Hsp104 0.25 µM monomer, ATP 1 mM, 60 min, mean ±S.D. (n = 2)

Compound: N.N.[Cl][Pt][Cl] [Cisplatin, cis-diamminedichloroplatinum (II)]
- % Inhibition of Hsp104 ATP hydrolysis [1, 5]: 76.58±1.06%
- Inhibition of Hsp104 ATPase activity in the presence of both Triton X-100 and BSA ([1]; titration 40-0.49 µM, 60 min, Triton X-100 and BSA, heat map Figure 1A): most significantly inhibit Hsp104 ATPase activity
- Effect on Hsp104 ATPase activity (Pi produced), manual assay ([2]; varying concentrations, Figure 2A): unable to replicate the inhibitory effect of Cisplatin outside of the 384-well format

Compound: N.N.O=C([O-])C1(C(=O)[O-])CCC1.[Pt+2] [Carboplatin]
- % Inhibition of Hsp104 ATP hydrolysis [1, 5]: 73.75±1.41%

Compound: O=C(O)C1=CC(=C(c2ccc(O)c(C(=O)O)c2)c2ccc(O)c(C(=O)O)c2)C=CC1=O [Aurin tricarboxylic acid]
- inhibition at 10 µM [1, 5]: 24.2 ± 1.41%

Compound: CC(=O)O.Cc1cc2c(C(C)C)c(O)c(O)c(C=O)c2c(O)c1-c1c(C)cc2c(C(C)C)c(O)c(O)c(C=O)c2c1O [Gossypol-acetic acid complex]
- % Inhibition of Hsp104 ATP hydrolysis [1, 5]: 47.92±1.30%

Compound: C=C1c2cccc(O)c2C(=O)C2=C(O)[C@]3(O)C(=O)C(C(N)=O)=C(O)[C@@H](N(C)C)[C@@H]3[C@@H](O)[C@H]12 [Methacycline hydrochloride]
- inhibition at 10 µM [1, 5]: 33.3 ± 2.12%

Compound: Sucralfate Sodium
- % Inhibition of Hsp104 ATP hydrolysis [1, 5]: 25.67±2.59%

Compound: Cl.N=C(N)N [GdmCl, guanidinium hydrochloride]
- Effect on Hsp104 ATPase activity, manual assay ([2]; 30 mM (highest concentration tested)): only very mildly inhibited Hsp104 ATPase activity
- Concentration needed to elicit the same level of inhibition as 100 µM Suramin (complete ablation of luciferase refolding) ([3]; ATP:ATPγS 1:1): 5 mM
- Normalized Luciferase Refolding Activity ([3]; GdmCl 1 mM): 0.07
- Normalized Luciferase Refolding Activity ([3]; GdmCl 5 mM): 0.01
- Normalized Luciferase Refolding Activity ([3]; GdmCl 10 mM): 0.01
- Normalized Luciferase Refolding Activity ([3]; GdmCl 20 mM): 0.01
- Effect on luciferase reactivation activity of Hsp104 ([3]; all concentrations of GdmCl tested (1-20 mM)): very strongly inhibited the luciferase reactivation activity of Hsp104
- Hsp104 ATPase activity remaining ([4]; GdmCl 100 mM): large fraction of Hsp104 ATPase activity remained
- Effective concentration for inhibition of Hsp104 activity [4]: effective at millimolar concentrations

Compound: O=C(O)c1cc(O)c2c(c1)[C@H]([C@H]1c3cc(C(=O)O)cc(O)c3C(=O)c3c(O[C@@H]4O[C@H](CO)[C@@H](O)[C@H](O)[C@H]4O)cccc31)c1cccc(O[C@@H]3O[C@H](CO)[C@@H](O)[C@H](O)[C@H]3O)c1C2=O [Sennoside a]
- % Inhibition of Hsp104 ATP hydrolysis [1, 5]: 19.92±7.07%
- inhibition at 10 µM [1, 5]: ~20%

Compound: O=C(O[C@@H]1Cc2c(O)cc(O)cc2O[C@@H]1c1cc(O)c(=O)c2c(O)c(O)cc([C@H]3Oc4cc(O)cc(O)c4C[C@H]3O)c2c1)c1cc(O)c(O)c(O)c1 [Theaflavin monogallates]
- inhibition at 10 µM [1, 5]: 57.2 ± 7.19%

Compound: O=C([O-])c1ccccc1-c1c2cc(Br)c(=O)cc-2oc2[c]([Hg+])c([O-])c(Br)cc12.[Na+].[Na+].[OH-] [Merbromin]
- % Inhibition of Hsp104 ATP hydrolysis [1, 5]: 21.17±3.54%

Compound: Cc1cc2c(C(C)C)c(O)c(O)c(C=O)c2c(O)c1-c1c(C)cc2c(C(C)C)c(O)c(O)c(C=O)c2c1O [Gossypol]
- inhibition at 10 µM [1]: 42.3 ± 4.83%

Compound: Chlorophyllide Cu Complex Na Salt
- % Inhibition of Hsp104 ATP hydrolysis [1, 5]: 33.79±2.18%

Compound: O=C1C=C2CC3(O)COc4c(ccc(O)c4O)C3=C2C=C1O (centres unmarked) [Hematein]
- inhibition at 10 µM [1]: 45.7 ± 5.95%

Compound: Tannic acid
- % Inhibition of Hsp104 ATP hydrolysis [1, 5]: 79.79±0.29%
- % Inhibition of Hsp104 ATP hydrolysis ([1]; 10 µM compound, Hsp104 0.25 µM monomer, ATP 1 mM, 60 min, mean ±S.D. (n = 2), listed as tannic acid): ~80%

Compound: Oc1c(Cl)cc(Cl)c(Cl)c1Cc1c(O)c(Cl)cc(Cl)c1Cl [Hexachlorophene]
- % Inhibition of Hsp104 ATP hydrolysis [1, 5]: 80.21±1.00%
- inhibition at 10 µM [1, 5]: ~80%

Compound: O=C(Oc1cc(O)cc2c1C[C@@H](OC(=O)c1cc(O)c(O)c(O)c1)[C@@H](c1cc(O)c(O)c(O)c1)O2)c1cc(O)c(O)c(O)c1 [Epigallocatechin 3,5-digallate]
- inhibition at 10 µM [1, 5]: 21.9 ± 2.53%
